{"source": "patent US8476256B2", "about": "“Diazonamide analogs” (Joyant Pharmaceuticals, Inc., priority 2008, dated 2013)", "key": {"[1]": {"tested_on": "HCC44 tumor cell line (Lung)", "test": "Cell profiling, HCC44", "assay_type": "cell-based", "details": "Homo sapiens", "method": "(§1) Cell viability assays were run using standard protocols known to those of skill in art. Cells were plated in 96 well plates at the density of 3,000-10,000 cells per well. Twenty four hours later, cells were treated with increasing concentration of test compounds (1 nM to 1 μM). After another 48 hour, cell survival was measured using CELL-TITER-GLO® reagent (Promega) following the protocol provided by the manufacture. The IC50 value was determined as the concentration of test compound that kills 50% of the cell population."}, "[2]": {"tested_on": "PL45 tumor cell line (Pancreas)", "test": "Cell profiling, PL45", "assay_type": "cell-based", "method": "as §1"}, "[3]": {"tested_on": "Panc-1 tumor cell line (Pancreas)", "test": "Cell profiling, Panc-1", "assay_type": "cell-based", "details": "Homo sapiens; Panc-1, Pancreas", "method": "as §1"}, "[4]": {"tested_on": "Lovo tumor cell line (Colon)", "test": "Cell profiling, Lovo", "assay_type": "cell-based", "details": "Homo sapiens", "method": "as §1"}, "[5]": {"tested_on": "NCI-H460 tumor cell line (Lung)", "test": "Cell profiling, NCI-H460", "assay_type": "cell-based", "details": "Homo sapiens", "method": "as §1"}, "[6]": {"tested_on": "HCC1437 tumor cell line (Lung)", "test": "Cell profiling, HCC1437", "assay_type": "cell-based", "method": "as §1"}, "[7]": {"tested_on": "T98G tumor cell line (Glial Cells)", "test": "Cell profiling, T98G", "assay_type": "cell-based", "details": "Homo sapiens", "method": "as §1"}, "[8]": {"tested_on": "HT29 tumor cell line (Colon)", "test": "Cell profiling, HT29", "assay_type": "cell-based", "details": "Homo sapiens, HT-29", "method": "as §1"}, "[9]": {"tested_on": "MiaPaca-2 tumor cell line (Pancreas)", "test": "Cell profiling, MiaPaca-2", "assay_type": "cell-based", "details": "Homo sapiens, MIA PaCa-2; MiaPaca-2, Pancreas", "method": "as §1"}, "[10]": {"tested_on": "SW1990 tumor cell line (Pancreas)", "test": "Cell profiling, SW1990", "assay_type": "cell-based", "details": "Homo sapiens", "method": "as §1"}, "[11]": {"tested_on": "MDA-MB435 tumor cell line (Breast)", "test": "Cell profiling, MDA-MB435", "assay_type": "cell-based", "details": "Homo sapiens, MDA-MB-435", "method": "as §1"}, "[12]": {"tested_on": "Colo205 tumor cell line (Colon)", "test": "Cell profiling, Colo205", "assay_type": "cell-based", "details": "Homo sapiens, COLO 205", "method": "as §1"}, "[13]": {"tested_on": "MiaPaca (pancreatic cancer) cells", "test": "MiaPaca xenograft model, tumor free animals", "assay_type": "in vivo, Athymic nude mice", "details": "20 mg/kg, tail vein injection, 6 injections (days 9, 11, 14, 16, 18, 21), at 35 days post tumor cell injection, 7 mice/group", "method": "Animals: Athymic nude mice, female, 6-7 weeks old, 20-25 g. Animals bearing with 180-400 mg tumors were selected for experiment. 7 mice/group.\nAdministration: Tail vein injection, 200 μL/mouse, to provide the dose indicated.\nDosing schedule: 6 injections were given on the days indicated post-tumor cell injection.\nControls: Vehicle, Compound J at 20 mg/kg.\nTest Compound preparation: Compound J and all test compounds were dissolved in 50% Cremophore/EtOH (1:1) at 10 mg/mL as stock solution. Each compound solution was diluted with saline before injection to the concentration indicated.\nXenograft Model: MiaPaca (pancreatic cancer) cells\nDosing schedule: 6 injections were given on days 9, 11, 14, 16, 18 and 21 post-tumor cell injection.\nTest Compounds: Example 23, Example 24, and Example 53, at 20 mg/kg.\nFor animals treated with the compound of Example 24 at 20 mg/kg, 7 of 7 animals were tumor free at 35 days post tumor cell injection."}, "[14]": {"tested_on": "DU145 tumor cell line (Prostate)", "test": "Cell profiling, DU145", "assay_type": "cell-based", "details": "Homo sapiens, DU-145", "method": "as §1"}, "[15]": {"tested_on": "U937 (human leukemic monocyte lymphoma) cell line", "test": "Cell viability assay (CELL-TITER-GLO), U937", "assay_type": "cell-based", "details": "U-937, Table 8 cell profiling, U937, Blood"}, "[16]": {"tested_on": "MDA-MB231 tumor cell line (Breast)", "test": "Cell profiling, MDA-MB231", "assay_type": "cell-based", "details": "Homo sapiens, MDA-MB-231", "method": "as §1"}, "[17]": {"tested_on": "SKMEL-5 tumor cell line (Skin)", "test": "Cell profiling, SKMEL-5", "assay_type": "cell-based", "details": "Homo sapiens, SK-MEL-5; SKMEL-5, Skin", "method": "as §1"}, "[18]": {"tested_on": "A2058 (human melanoma) cell line", "test": "Cell viability assay (CELL-TITER-GLO), A2058", "assay_type": "cell-based", "details": "Table 8 cell profiling, A2058, Skin"}, "[19]": {"tested_on": "G361 tumor cell line (Skin)", "test": "Cell profiling, G361", "assay_type": "cell-based", "details": "Homo sapiens, G-361", "method": "as §1"}, "[20]": {"tested_on": "A375 tumor cell line (Skin)", "test": "Cell profiling, A375", "assay_type": "cell-based", "details": "Homo sapiens, A-375", "method": "as §1"}, "[21]": {"tested_on": "U937 (human leukemic monocyte lymphoma) cell line", "test": "Cell viability assay (CELL-TITER-GLO), U937", "assay_type": "cell-based", "details": "U-937, U937 cells, 48 hour treatment, 1 nM to 1 μM"}, "[22]": {"tested_on": "SKMES-1 tumor cell line (Lung)", "test": "Cell profiling, SKMES-1", "assay_type": "cell-based", "details": "Homo sapiens, SK-MES-1; SKMES-1, Lung", "method": "as §1"}, "[23]": {"tested_on": "NCI-H226 tumor cell line (Lung)", "test": "Cell profiling, NCI-H226", "assay_type": "cell-based", "details": "Homo sapiens", "method": "as §1"}, "[24]": {"tested_on": "DLD-1 tumor cell line (Colon)", "test": "Cell profiling, DLD-1", "assay_type": "cell-based", "details": "Homo sapiens; DLD-1, Colon", "method": "as §1"}, "[25]": {"tested_on": "BxPC3 tumor cell line (Pancreas)", "test": "Cell profiling, BxPC3", "assay_type": "cell-based", "details": "Homo sapiens, BXPC-3", "method": "as §1"}, "[26]": {"tested_on": "A2058 (human melanoma) cell line", "test": "Cell viability assay (CELL-TITER-GLO), A2058", "assay_type": "cell-based", "details": "A2058 cells, 48 hour treatment, 1 nM to 1 μM"}}, "data": [{"smiles": "CCC(O)(CC)C(=O)N[C@H]1Cc2ccc3c(c2)C24C5=C(N=C(O5)[C@H](C(C)C)NC1=O)c1ncc(o1)-c1c[nH]c5cccc(c15)-c1cccc2c1NC4O3", "note": "(stereo in doubt) [Example 24]", "values": [{"measurement": "IC50", "setting": "[1]", "result": 36, "unit": "nM"}, {"measurement": "IC50", "setting": "[2]", "result": 113, "unit": "nM"}, {"measurement": "IC50", "setting": "[3]", "result": 288, "unit": "nM"}, {"measurement": "IC50", "setting": "[4]", "result": 150, "unit": "nM"}, {"measurement": "IC50", "setting": "[5]", "result": 242, "unit": "nM"}, {"measurement": "IC50", "setting": "[6]", "result": 195, "unit": "nM"}, {"measurement": "IC50", "setting": "[7]", "result": 67, "unit": "nM"}, {"measurement": "IC50", "setting": "[8]", "result": 90, "unit": "nM"}, {"measurement": "IC50", "setting": "[9]", "result": 111, "unit": "nM"}, {"measurement": "IC50", "setting": "[10]", "result": 360, "unit": "nM"}, {"measurement": "IC50", "setting": "[11]", "result": 29, "unit": "nM"}, {"measurement": "IC50", "setting": "[12]", "result": 144, "unit": "nM"}, {"measurement": "Tumor-free animals out of 7", "setting": "[13]", "result": "7 of 7"}, {"measurement": "Tumor-free animals out of 7", "setting": "[13]; listed as Ex. 24", "result": "7/7 (35)"}, {"measurement": "IC50", "setting": "[14]", "result": 57, "unit": "nM"}, {"measurement": "IC50", "setting": "[15]", "result": 44, "unit": "nM"}, {"measurement": "IC50", "setting": "[16]", "result": 234, "unit": "nM"}, {"measurement": "IC50", "setting": "[17]", "result": 70, "unit": "nM"}, {"measurement": "IC50", "setting": "[18]", "result": 93, "unit": "nM"}, {"measurement": "IC50", "setting": "[19]", "result": 275, "unit": "nM"}, {"measurement": "IC50", "setting": "[20]", "result": 162, "unit": "nM"}, {"measurement": "IC50", "setting": "[21]", "result": 0.062, "unit": "µM"}, {"measurement": "IC50", "setting": "[22]", "result": 470, "unit": "nM"}, {"measurement": "IC50", "setting": "[23]", "result": 104, "unit": "nM"}, {"measurement": "IC50", "setting": "[24]", "result": 515, "unit": "nM"}, {"measurement": "IC50", "setting": "[25]", "result": 213, "unit": "nM"}, {"measurement": "IC50", "setting": "[26]", "result": 0.105, "unit": "µM"}]}]}
